# Data taken from patent publication US5126258A (priority 1988, dated 1992).
# Read-outs that look alike come from different tables or passages of the source.
# Experiments:
# [1] = tested on: monoclonal antibody P3 6D4; assay: Ester hydrolysis by monoclonal antibody P3 6D4, HPLC; format: biochemical, mouse; details: for accelerated hydrolysis by P3 6D4 (substrate acceptance): pH 8.0; for t1/2 Antibody (P3 6D4): 5 micromolar substrate, 0.1 micromolar antibody, 50 mM phosphate pH 8.0, 25 C
# Method: FIG. 3 illustrates the rate of hydrolysis of a carboxylic ester (Compound 7) determined by HPLC under the conditions described in Table 1 (50 mM phosphate buffer at pH 8.0 and 23 degrees C). ( ) Uncatalyzed (background)rate of hydrolysis. (.quadrature.) Effect of 0.5 micromolar non-specific monoclonal IgG. ( ) 0.1 Micromolar anti-Compound 4 monoclonal antibody from hybridoma P3 6D4. The superimposed curve represents a theoretical exponential decay which fits the data points.
# (§1) In particular, an exemplary monoclonal receptor was produced by the standard hybridoma technology of Kohler et al., Nature, 256, 495 (1975). Specifically, female 129G1X^+ mice were immunized by intraperitoneal injection with an inoculum of 100 micrograms of conjugate (e.g., Compound 4i bound to KLH) in 300 microliters of a 1:1 mixture of phosphate buffered saline (PBS) pH 7.4 and complete Freund's adjuvant. Two weeks later, the mice were again injected in a like manner with 50 micrograms of the foregoing conjugate in 300 microliters of a 1:1 mixture of PBS (pH 7.4) and 10 mg/ml alum. After an additional eight weeks, the mice were immunized intravenously with 50 micrograms of the conjugate in 200 microliters of PBS (pH 7.4). The spleens were removed from the mice 4 days later, and the spleen cells were fused to myeloma cells.
# (§2) The lack of spectroscopic distinction between such esters and their hydrolysis products recommended a chromatographic analysis of the process. Referring to FIG. 3, a mixture of Compound 7 (5 uM) and the monoclonal antibody from hybridoma P3 6D4 (0.1 uM) in phosphate buffer (50 mM, pH 8.0) was analyzed over time by high performance liquid chromatography (HPLC). The accelerated hydrolysis of the ester was apparent from the decrease of its peak and the concurrent increase in two new peaks that correspond with the expected products. Under these conditions, the ester is completely consumed in 60-80 minutes during which time the background rate accounts for about 12 to 16 percent hydrolysis. The chromatographic profile is the same as that produced by treatment with hog liver esterase.
# (§3) *Hydrolysis of carboxylic esters by monoclonal antibody (from hybridoma P
# (§4) 6D4) and by hog liver esterase (Sigma Chemical Co., St. Louis, MO, EC
# (§5) 3.1.1.1) determined by HPLC on an analytical RPC18 column (Vydac 218TP54)
# (§6) with isocratic elution [acetonitrile: water plus 0.1 percent
# (§7) trifluoroacetic acid; (35:65)] at a flow rate of 1.0 ml/min and the
# (§8) detector set at 245 nm. The initial substrate concentration was 5
# (§9) micromolar and that the internal standard (acetophenone) was 10 microm
# (§10) olar in 50 mM phosphate buffer at pH 8.0. The retention times (minutes)
# (§11) were as follows: acetophenone, 5.0; Compound 7, 8.3; Compound 8, 6.7;
# (§12) Compound 9, 4.1; Compound 10, 11.1 (40 percent acetonitrile elution);
# (§13) Compound 11, 8.2. The antibody concentration was 15 micrograms/ml (0.1
# (§14) micromolar) and that of esterase was 5.5 micrograms/ml. The reaction
# (§15) mixtures were kept at 25 degrees C. and aliquots were analyzed at
# (§16) intervals of 2 to 20 minutes. Three or more determinations were used to
# (§17) plot a curve from which the halflife of the reaction is estimated (see
# [2] = tested on: hog liver esterase; format: biochemical; details: pig, 5 µM, pH 8
# Method: as §2, §3, §4, §5, §6, §7, §8, §9, §10, §11, §12, §13, §14, §15, §16, §17
# [3] = Spontaneous (uncatalyzed, background) hydrolysis; format: physicochemical; details: spectrophotometric at 245 nm, initial rates at five ester concentrations; figure = k × 10^5
# Summary of the method: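 Background (uncatalyzed) hydrolysis of ester substrates measured in 50 mM phosphate buffer, pH 8.0, without antibody, as percentage of reactant consumed over the stated period. Quantified by C18 HPLC (acetonitrile/water with 0.1% trichloroacetic acid); Compounds 5 and 20 followed by fluorescence (ex 355 nm, em 455 nm).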
# [4] = tested on: P2 50D8; assay: Catalytic hydrolysis by receptor P2 50D8; format: biochemical, mouse
# Method: (§18) Two further catalytic monoclonal receptors were similarly prepared by another fusion using Compound 2i linked to an antigenic carrier as immunogen. Those two catalytic receptor molecules and their hybridomas were designated "P2 50D8" and "P2 57G4".
# (§19) In one study, twenty-eight monoclonal anti-hapten antibodies to phosphonate 2i from two separate fusion experiments were assayed. […] Antibodies to Compound 4i as hapten were assayed in the same manner. Twelve gamma-globulins were screened as described above. Compound 5 is homologous only in the acyl portion of this larger hapten; however, all but three of these cross-reacted with smaller phosphonate 2 in an ELISA assay as described herein. For two of these there was observed a fluorescence change, occurring in the first 5 minutes of incubation, which corresponds to about 50 percent of that for complete hydrolysis. The background rate of hydrolysis was reestablished after this initial reaction leveled off.
# [5] = tested on: P2 57G4; assay: Catalytic hydrolysis by receptor P2 57G4; format: biochemical, mouse
# Method: as §18, §19
# [6] = Chemical stability
# [7] = target: Monoclonal Receptor 37G2; assay: Kinetics of hydrolysis by receptor 37G2; format: biochemical, mouse; details: inhibitor Compound 12i (100 and 300 nM), substrate Compound 17; figure = Ki × 10^7
# Excerpt: (§20) Reaction kinetics were studied using three reactant ligands as substrates for monoclonal receptors 37G2 and 22F5. Data from initial rates were consistent with Michaelis-Menten reaction mechanism for a usual enzyme-substrate system. Initial rates were followed using at 271 nm using a U.V.-visible spectorphotometer for Compound 17, and a fluorescence spectrometer for Compounds 5 and 20, using an excitation wavelength of 355 nm and an emission wavelength of 455 nm for both compounds.
# Lineweaver-Burke plots for the catalyzed hydrolysis of Compounds 17, 5 and 20 obtained in the presence and absence of Compound 12i as inhibitor were prepared as discussed for FIG. 4. In particular, Compound 17 was present at concentrations of 1-16 uM with inhibitor concentrations of 100 and 300 nanomolar (nM). Compound 5 was present at concentrations of 1-10 uM with inhibitor concentrations of 100 and 200 nM. Compound 20 was present at concentrations of 2-20 uM with inhibitor concentrations of 25 and 100 nM. […]
# (§21) 50 mM phosphate buffer at a pH value of 8.0. The reactant ligand was
# (§22) dissolved in dioxane and admixed in the amounts discussed above. Two
# (§23) milliliters of reaction solution were utilized as was a dioxane
# concentration of 2 percent by volume. Assays with Compound 17 as reac tan
# ligand utilized 500 nanomolar receptor (based on a molecular weight of
# 150,000 daltons) in the above buffer, using the reactant ligand dissolved
# in dioxane and a total dioxane concentration of 2 percent by volume.
# [8] = target: Monoclonal Receptor 22F5; assay: Kinetics of hydrolysis by receptor 22F5; format: biochemical, mouse; details: figure = Ki × 10^7
# Excerpt: as §20
# Lineweaver-Burke plots for the catalyzed hydrolysis of Compounds 17, 5 and 20 obtained in the presence and absence of Compound 12i as inhibitor were prepared as discussed for FIG. 4. In particular, Compound 17 was present at concentrations of 1-16 uM with inhibitor concentrations of 100 and 300 nanomolar (nM). Compound 5 was present at concentrations of 1-10 uM with inhibitor concentrations of 100 and 200 nM. Compound 20 was present at concentrations of 2-20 uM with inhibitor concentrations of 25 and 100 nM.
# *Fluorescence assays using Compounds 20 and 5 were carried out in a
# PerkinElmer fluorescence spectrophotometer (moded LS5; Oakbrook, IL) usin
# 200 nanomolar receptor (based on a molecular weight of 150,000 daltons) i
# as §21, §22, §23
# concentration of 2 percent by volume. […]
# [9] = tested on: monoclonal antibody P3 6D4; assay: Kinetics and inhibition of catalytic ester hydrolysis by monoclonal antibody P3 6D4, spectrophotometric at 245 nm; format: biochemical, mouse; details: for Km / Vmax / kcat: 50 mM phosphate pH 8.0, 25 C; for Km / Vmax: 100 nM IgG; for Km: figure = Km × 10^6; for Vmax: figure = Vmax × 10^9; for kcat: printed figure = kcat × 10^2; for kcat/kuncat: pH 8.0; for acceleration above the background rate: pH 8.0, corrected for background hydrolysis rate
# Method: FIG. 4 illustrates a Lineweaver-Burk plot for the hydrolysis of Compound 7 by anti-Compound 4 monoclonal antibody from hybridoma P3 6D4. Velocities were determined spectrophotometrically by measuring initial rates during the first linear portion of the reaction as described with reference to Table 2. The substrate concentrations were corrected for amounts consumed during initial equilibration. ( ) No inhibitor present. ( ) Inhibited by 50 nM phosphonate (Compound 3). ( ) Inhibited by 100 nM phosphonate (Compound 3).
# as §1
# Reaction kinetics were measured spectrophotometrically by following the absorption change at 245 nanometers. […] Kinetic parameters obtained with these substrates are shown in Table 2 along with the inhibition constants obtained with phosphonate (Compound 3). Under these conditions, the acceleration above the background rate is about 960-fold for Compound 7 and about 200-fold for Compound 8 (corrected for the background hydrolysis rate).
# *The kinetic parameters shown in Table 2 are for the hydrolysis of esters
# (Compounds 7 and 8) by monoclonal antibody P3 6D4. A PerkinElmer lambda 4
# spectrophotometer, equipped with thermostatted cell holder, was used to
# measure absorption changes at 245 nm. Cells containing the substrate at
# concentrations of 0.5 to 50 micromolar in phosphate buffer (50 mM, pH 8.0
# were preequilibrated at 25 degrees C. The concentration of active IgG in
# stock solution was found by reacting with the coumarin ester (Compound 5)
# and measuring the yield of hydroxycoumarin by fluorescence. The kinetic
# run was initiated by addition of an aliquot of the antibody stock solutio
# (in 50 mM phosphate buffer, pH 8.0) calculated to give 100 nM IgG. The
# mixture was allowed to equilibrate for 2 to 3 minutes and the rate was
# then measured during the subsequent 10 minutes. The absorption change for
# complete hydrolysis was determined by treatment with esterase. Kinetic
# parameters were obtained from L ineweaverBurk plots (see FIG. 4).
# Inhibition constants were determined from a plot of the slopes with at
# least four inhibitor concentrations of Compound 3. The data were analyzed
# [10] = tested on: monoclonal receptor P3 6D4; assay: Stoichiometric transacylation reaction of monoclonal receptor P3 6D4 with coumarin ester Compound 5 (fluorescence) and its inhibition/inactivation; format: biochemical, mouse
# Summary of the method: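 Antibody P3 6D4 (100 nM final) reacted at 23 °C with coumarin ester 5 in Tris-HCl or phosphate buffer (50 mM, pH 4–9), followed by fluorescence (ex 355/em 455 nm). Initial rates corrected for spontaneous hydrolysis; kinetic parameters from hyperbolic and double-reciprocal fits, Ki from Lineweaver-Burk with ≥5 inhibitor concentrations.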
# [11] = Solubility; format: physicochemical; details: aqueous buffer
smiles,measurement,setting,value
CC(=O)Nc1ccc(CC(=O)Oc2ccc(NC(C)=O)cc2)cc1 [Compound 9],accelerated hydrolysis by P3 6D4 (substrate acceptance),[1],not accepted as substrates
same,t1/2 Esterase,[2],4 min
same,kuncat,[3],25000 s⁻¹
same,catalytic hydrolysis by P2 50D8,[4],capable of catalytically hydrolyzing
same,catalytic hydrolysis by P2 57G4,[5],capable of catalytically hydrolyzing
COC(=O)c1cccc(C(=O)NCc2cc(NC(=O)CCCCC(=O)ON3C(=O)CCC3=O)ccc2OP(=O)(O)Cc2ccc(NC(=O)C(F)(F)F)cc2)n1 [Compound 4i],hydrolytic stability (NHS group),[6]; store at zero degrees C in a dessicator,prone to hydrolysis
Cc1ccc2cccc(NP(=O)(O)Cc3ccc(NC(=O)C(F)(F)F)cc3)c2n1 [Compound 12i],Ki,[7],140 nM
same,Ki,"[8]; inhibitor Compound 12i (25 and 100 nM), substrate Compound 20",70 nM
same,Ki,"[8]; inhibitor Compound 12i (100 and 200 nM), substrate Compound 5",110 nM
same,stability,"[6]; pH 3.5-7.3, room temperature",at least 11 days
O=C(O)CCC(=O)Nc1ccc(OC(=O)Cc2ccc(NC(=O)C(F)(F)F)cc2)cc1 [Compound 8],t1/2 Antibody (P3 6D4),[1],60 min
same,accelerated hydrolysis by P3 6D4 (substrate acceptance),[1],somewhat slower rate
same,t1/2 Esterase,[2],52 min
same,Km,[9],0.62 µM
same,Vmax,[9],0.06 µM/min
same,kcat,[9],0.008 s⁻¹
same,kcat/kuncat,[9],210
same,acceleration above the background rate,[9],about 200 fold
same,inactivation of receptor,[10],loss of activity
same,solubility,"[11]; 50 mm phosphate buffer, phosphate buffer 50 mM, pH 8.0, read-out: soluble up to concentration",≥ 100 µM
Cc1ccc2cccc(NP(=O)(O)Cc3ccc(NC(=O)CCCC(=O)ON4C(=O)CCC4=O)cc3)c2n1 [Compound 13],decomposition,[6]; pH 3.5 and 6.2,No signs of decomposition
same,stability at zero degrees C,"[6]; zero degrees C, over 5 days",stable
CC(=O)Nc1ccc(CC(=O)Oc2ccc(NC(=O)C(F)(F)F)cc2)cc1 [Compound 11],accelerated hydrolysis by P3 6D4 (substrate acceptance),[1],not manifested by the accelerated hydrolysis
same,t1/2 Esterase,[2],5 min
same,kuncat,[3],610000 s⁻¹
same,catalytic hydrolysis by P2 50D8,[4],capable of catalytically hydrolyzing
same,catalytic hydrolysis by P2 57G4,[5],capable of catalytically hydrolyzing
CC(=O)Nc1ccc(OC(=O)Cc2ccc(NC(=O)C(F)(F)F)cc2)cc1 [Compound 7],time to complete consumption of ester,"[1]; 5 uM Compound 7, 0.1 uM antibody P3 6D4, 50 mM phosphate pH 8.0",60 to 80 min
same,t1/2 Antibody (P3 6D4),[1],16 min
same,t1/2 Esterase,[2],4 min
same,kuncat,[3],280000 s⁻¹
same,Km,[9],1.9 µM
same,Vmax,[9],0.132 µM/min
same,kcat,[9],0.027 s⁻¹
same,kcat/kuncat,[9],960
same,acceleration above the background rate,[9],about 960 fold
same,turn over of receptor with substrate,[9]; without noticeable inactivation,several hundred fold
same,solubility,[11]; read-out: concentration above which solutions become slightly turbid,15 µM
